# Data from patent publication US4716171A (Etablissements Nativelle S.A., priority 1981, dated 1987).
# Where two headings read alike, the source gives them in different places.
# Legend:
# ventricular arrhythmia = experiment: Harris test; assay type: in vivo, dogs; details: for % Protection / % Protection, Average: dogs, I.V.; for % Protection, Average: average of Exp. 1 and 2
# From the text: (§1) Antiarrhythmic activity in mice was observed by means of the Lawson test, using the method described by J. W. Lawson, J. Pharmacol. Exp. Therp., 160, 22-31 (1968) and Cr. Narcisse et al. Ann. Pharma. Fr., 37, 325-330 (1979), in rats by the test with aconitine of S. Witchitz et al. Coeur Med. Int., X(2), 281-286 (1971), and in dogs by the Harris test described in Circulation, 1, 1318 (1950). 3S-hydroxy-10,11-dihydroquinidine was used for each of these three tests.
# [1] = system: anoxic ventricular fibrillation; experiment: Lawson test (antifibrillatory power); assay type: in vivo, mice
# From the text: as §1
# The Lawson test enables the study of the cardiac antifibrillatory power of the derivatives of the present invention. […] The efficacity dose 50 (ED50) indicated in Table 4 is the dose which protects half of the mice against anoxic ventricular fibrillation.
# [2] = set-up: species or system dogs; details: dog, in vivo, iv
# Procedure: The parameters were recorded by means of: catheters connected to pressure sensors (arterial pressure, left ventricular pressure and its first dp/dt derivative); electromagnetic flowmeter on the aorta (aortic flow); electrocardiograph; strain gauge placed on the left ventricular myocardium (myocardiac contraction force).
# arrhythmia = experiment: Test with aconitine (arrhythmia appearance time); assay type: in vivo, rats; details: for Appearance Time, ESV (ventricular extrasystoles): control 98; for Appearance Time, TV (ventricular tachycardium): control 112; for Appearance Time, FV (ventricular fibrillation): control 228; for Appearance Time, ESV (ventricular extrasystoles), %: vs control 98; for Appearance Time, TV (ventricular tachycardium), %: vs control 112
# From the text: as §1
# [3] = Electrophysiological study in anesthetized dog (closed thorax, bipolar catheter-electrodes); assay type: in vivo
# Procedure: The study was carried out on a dog anesthetized with pentobarbital, with a closed thorax, by means of bipolar catheter-electrodes introduced into the cardiac cavities by transcutaneous venous and arterial tracts.
# In this manner and by means of a programmable stimulator, sinusal automaticity, intracardiac conduction times, and the effective and functional cardiac refractory periods can be measured.
# [4] = LD50 in mice (Lichfield and Wilcoxon method); details: mouse, in vivo, ip, mice (male and female), intraperitoneal, comparison; read-out: LD50 (average values)
# From the text: For example, the results obtained with 3S-hydroxy-10,11-dihydroquinidine in the form of the hydrochloride salt are shown in Table 1 below.
smiles,measurement,setting,value
"CC[C@@]1(O)CN2CC[C@H]1C[C@@H]2[C@@H](O)c1ccnc2ccc(OC)cc12 [3S-hydroxy-10,11-dihydroquinidine, 3S-Hydroxy-10,11-dihydroquinidine]",decrease in ventricular arrhythmia (in words),"ventricular arrhythmia; 6 mg/kg, compared with quinidine",greater with the compound of the present invention than with quinidine
same,% Protection,"ventricular arrhythmia; 6 mg/kg, 1 h, Exp. 1",65%
same,% Protection,"ventricular arrhythmia; 6 mg/kg, 1 h, Exp. 2",39%
same,"% Protection, Average","ventricular arrhythmia; 6 mg/kg, 1 h",52%
same,% Protection,"ventricular arrhythmia; +10 mg/kg, 1 h, Exp. 1",72%
same,% Protection,"ventricular arrhythmia; +10 mg/kg, 1 h, Exp. 2",42%
same,"% Protection, Average","ventricular arrhythmia; +10 mg/kg, 1 h",57%
same,% Protection,"ventricular arrhythmia; +10 mg/kg, 2 h, Exp. 1",97%
same,% Protection,"ventricular arrhythmia; +10 mg/kg, 2 h, Exp. 2",41%
same,"% Protection, Average","ventricular arrhythmia; +10 mg/kg, 2 h",69%
same,efficacity (in words),"ventricular arrhythmia; higher doses, compared with quinidine",comparable for higher doses
same,ED50,"[1]; Mus musculus, ip, mice, I.P., read-out: ED 50 (dose which protects half of the mice against anoxic ventricular fibrillation)",72.5 mg/kg
same,antifibrillatory efficacity (in words),[1]; compared with quinidine,comparable to that of quinidine
same,cardiac flow (in words),[2],no significant change before a cumulative dose of 20 mg/kg is reached
same,cardiac frequency (in words),[2],not significantly modified before a cumulative dose of 20 mg/kg is reached
same,myocardiac contraction force (in words),[2],no change
same,systolic arterial pressure (in words),[2],"diminishes progressively with the dose, the effects only becoming considerable for a cumulative dose greater than 10 mg/kg"
same,"Cardiac Flow, variation in relation to initial value",[2]; 0.5 mg/kg,-50 ± 50 mL/min
same,"Cardiac Frequency, variation in relation to initial value",[2]; 0.5 mg/kg,-2 ± 6 beats/min.
same,"Force of Contractions of the Myocardium, variation in relation to initial value",[2]; 0.5 mg/kg,-3 ± 3 g
same,"Systolic Arterial Pressure, variation in relation to initial value",[2]; 0.5 mg/kg,-11 ± 4 mmHg
same,"Total Peripheral Resistance, variation in relation to initial value",[2]; 0.5 mg/kg,-382 ± 180
same,"Cardiac Flow, variation in relation to initial value",[2]; 4 mg/kg,-90 ± 143 mL/min
same,"Cardiac Frequency, variation in relation to initial value",[2]; 4 mg/kg,-5 ± 2 beats/min.
same,"Force of Contractions of the Myocardium, variation in relation to initial value",[2]; 4 mg/kg,0 ± 1 g
same,"Systolic Arterial Pressure, variation in relation to initial value",[2]; 4 mg/kg,-20 ± 5 mmHg
same,"Total Peripheral Resistance, variation in relation to initial value",[2]; 4 mg/kg,-457 ± 277
same,"Cardiac Flow, variation in relation to initial value",[2]; 5 mg/kg,-316 ± 412 mL/min
same,"Cardiac Frequency, variation in relation to initial value",[2]; 5 mg/kg,-3 ± 16 beats/min.
same,"Force of Contractions of the Myocardium, variation in relation to initial value",[2]; 5 mg/kg,2 ± 1 g
same,"Systolic Arterial Pressure, variation in relation to initial value",[2]; 5 mg/kg,-23 ± 7 mmHg
same,"Total Peripheral Resistance, variation in relation to initial value",[2]; 5 mg/kg,-376 ± 227
same,"Cardiac Flow, variation in relation to initial value",[2]; 10 mg/kg,-775 ± 498 mL/min
same,"Cardiac Frequency, variation in relation to initial value",[2]; 10 mg/kg,-15 ± 13 beats/min.
same,"Force of Contractions of the Myocardium, variation in relation to initial value",[2]; 10 mg/kg,8 ± 1 g
same,"Systolic Arterial Pressure, variation in relation to initial value",[2]; 10 mg/kg,-36 ± 13 mmHg
same,"Total Peripheral Resistance, variation in relation to initial value",[2]; 10 mg/kg,-91
same,protective effect against arrhythmia (in words),arrhythmia; compared with quinidine,greater than that of quinidine
same,activity in the test with aconitine (in words),"arrhythmia; compared with quinidine, quantitative level",considerably more active than quinidine
same,"Appearance Time, ESV (ventricular extrasystoles)","arrhythmia; rats, I.V., 10 mg/kg",208 min
same,"Appearance Time, TV (ventricular tachycardium)","arrhythmia; rats, I.V., 10 mg/kg",253 min
same,"Appearance Time, FV (ventricular fibrillation)","arrhythmia; rats, I.V., 10 mg/kg",504 min
same,"Appearance Time, ESV (ventricular extrasystoles), %","arrhythmia; rats, I.V., 10 mg/kg",+112%
same,"Appearance Time, TV (ventricular tachycardium), %","arrhythmia; rats, I.V., 10 mg/kg",+125%
same,"Appearance Time, FV (ventricular fibrillation), %","arrhythmia; rats, I.V., 10 mg/kg, vs control 228",+121%
same,"Cardiac Cycle, percentage of variation",[3]; 1 mg/kg,+4.5%
same,"HV (HissPurkinje conduction), percentage of variation",[3]; 1 mg/kg,+10.8%
same,"PREA (Effective auricular refractory period), percentage of variation",[3]; 1 mg/kg,+8%
same,"PREV (Effective ventricular refractory period), percentage of variation",[3]; 1 mg/kg,-1.5%
same,"PRFN (Functional nodal refractory period), percentage of variation",[3]; 1 mg/kg,0%
same,"QRS (Intraventricular conduction), percentage of variation",[3]; 1 mg/kg,+14.4%
same,"QTc (Corrected repolarization time), percentage of variation",[3]; 1 mg/kg,+2.8%
same,"SH (AuriculoHissian conduction), percentage of variation",[3]; 1 mg/kg,+1.7%
same,"Cardiac Cycle, percentage of variation",[3]; 5 mg/kg,+5.1%
same,"HV (HissPurkinje conduction), percentage of variation",[3]; 5 mg/kg,+20.9%
same,"PREA (Effective auricular refractory period), percentage of variation",[3]; 5 mg/kg,+16%
same,"PREV (Effective ventricular refractory period), percentage of variation",[3]; 5 mg/kg,+2.8%
same,"PRFN (Functional nodal refractory period), percentage of variation",[3]; 5 mg/kg,+5.5%
same,"QRS (Intraventricular conduction), percentage of variation",[3]; 5 mg/kg,+14.4%
same,"QTc (Corrected repolarization time), percentage of variation",[3]; 5 mg/kg,+7%
same,"SH (AuriculoHissian conduction), percentage of variation",[3]; 5 mg/kg,+3.8%
same,"Cardiac Cycle, percentage of variation",[3]; 10 mg/kg,+14. %
same,"HV (HissPurkinje conduction), percentage of variation",[3]; 10 mg/kg,+32.8%
same,"PREA (Effective auricular refractory period), percentage of variation",[3]; 10 mg/kg,+23.7%
same,"PREV (Effective ventricular refractory period), percentage of variation",[3]; 10 mg/kg,+6.5%
same,"PRFN (Functional nodal refractory period), percentage of variation",[3]; 10 mg/kg,+12.6%
same,"QRS (Intraventricular conduction), percentage of variation",[3]; 10 mg/kg,+22%
same,"QTc (Corrected repolarization time), percentage of variation",[3]; 10 mg/kg,+6%
same,"SH (AuriculoHissian conduction), percentage of variation",[3]; 10 mg/kg,+15%
same,cardiac frequency (in words),[3]; compared with quinidine,slows cardiac frequency like quinidine
same,"cardiac refractory periods, level of the auricles (in words)",[3]; compared with quinidine,greater than those of quinidine
same,"cardiac refractory periods, ventricular and nodal stage (in words)",[3]; compared with quinidine,effects equivalent to those of quinidine
same,conduction in the His-Purkinje system (in words),[3]; compared with quinidine,effects greater than those of quinidine
same,conduction between the auricles and the trunk of the His fasciculus (in words),"[3]; dog, in vivo",slightly changes conduction
"C=C[C@H]1C[N@@]2CC[C@H]1C[C@@H]2[C@@H](O)c1ccnc2ccc(OC)cc12 [Quinidine, quinidine, reference compound]",% Protection,"ventricular arrhythmia; quinidine, 6 mg/kg, 1 h",21%
same,% Protection,"ventricular arrhythmia; quinidine, +5 mg, 1 h",55%
same,% Protection,"ventricular arrhythmia; quinidine, +5 mg, 2 h",52%
same,LD50,[4],225 to 235 mg/kg
same,"Appearance Time, ESV (ventricular extrasystoles)","arrhythmia; rats, I.V., 10 mg/kg",150 min
same,"Appearance Time, TV (ventricular tachycardium)","arrhythmia; rats, I.V., 10 mg/kg",171 min
same,"Appearance Time, FV (ventricular fibrillation)","arrhythmia; rats, I.V., 10 mg/kg",474 min
same,"Appearance Time, ESV (ventricular extrasystoles), %","arrhythmia; rats, I.V., 10 mg/kg",+53%
same,"Appearance Time, TV (ventricular tachycardium), %","arrhythmia; rats, I.V., 10 mg/kg",+52%
same,"Cardiac Cycle, percentage of variation",[3]; 1 mg/kg,+2.7%
same,"HV (HissPurkinje conduction), percentage of variation",[3]; 1 mg/kg,0%
same,"PREA (Effective auricular refractory period), percentage of variation",[3]; 1 mg/kg,+2%
same,"PREV (Effective ventricular refractory period), percentage of variation",[3]; 1 mg/kg,+3.3%
same,"PRFN (Functional nodal refractory period), percentage of variation",[3]; 1 mg/kg,+3%
same,"QRS (Intraventricular conduction), percentage of variation",[3]; 1 mg/kg,0%
same,"QTc (Corrected repolarization time), percentage of variation",[3]; 1 mg/kg,+1.8%
same,"SH (AuriculoHissian conduction), percentage of variation",[3]; 1 mg/kg,+3.5%
same,"Cardiac Cycle, percentage of variation",[3]; 5 mg/kg,+5.1%
same,"HV (HissPurkinje conduction), percentage of variation",[3]; 5 mg/kg,+8.7%
same,"PREA (Effective auricular refractory period), percentage of variation",[3]; 5 mg/kg,+3.5%
same,"PREV (Effective ventricular refractory period), percentage of variation",[3]; 5 mg/kg,+6.5%
same,"PRFN (Functional nodal refractory period), percentage of variation",[3]; 5 mg/kg,+5%
same,"QRS (Intraventricular conduction), percentage of variation",[3]; 5 mg/kg,0%
same,"QTc (Corrected repolarization time), percentage of variation",[3]; 5 mg/kg,0%
same,"SH (AuriculoHissian conduction), percentage of variation",[3]; 5 mg/kg,+7.2%
same,"Cardiac Cycle, percentage of variation",[3]; 10 mg/kg,+9.2%
same,"HV (HissPurkinje conduction), percentage of variation",[3]; 10 mg/kg,+17.7%
same,"PREA (Effective auricular refractory period), percentage of variation",[3]; 10 mg/kg,+14.4%
same,"PREV (Effective ventricular refractory period), percentage of variation",[3]; 10 mg/kg,+8.5%
same,"PRFN (Functional nodal refractory period), percentage of variation",[3]; 10 mg/kg,+9%
same,"QRS (Intraventricular conduction), percentage of variation",[3]; 10 mg/kg,0%
same,"QTc (Corrected repolarization time), percentage of variation",[3]; 10 mg/kg,+1.5%
same,"SH (AuriculoHissian conduction), percentage of variation",[3]; 10 mg/kg,+10.5%
